{
  "source": "ChEMBL document CHEMBL5321230",
  "about": "“Design, synthesis, and biological evaluation of novel HIV-1 protease inhibitors containing pyrrolidine-derived P2 ligands to combat drug-resistant variant” (Eur J Med Chem, 2023)",
  "key": {"[1]": {"biological_target": "Human immunodeficiency virus type 1 protease (Human immunodeficiency virus 1, UniProt Q72874)", "assay": "Inhibition of HIV-1 protease expressed in Escherichia coli using Arg-Glu(EDANS)-Ser-Gln-Asn-Tyr-Pro-Ile-Val-Gln-Lys(DABCYL)-Arg peptide as substrate preincubated for 20 to 30 mins followed by substrate addition and measured for 10 mins by FRET assay"}, "[2]": {"assay": "Cytotoxicity against human HEK293T cells assessed as reduction in cell viability incubated for 24 hrs by CCK-8 assay", "type": "toxicity, cell-based, HEK-293T"}, "[3]": {"tested_on": "Human immunodeficiency virus 1", "assay": "(§1) Antiviral activity against wild type VSV-G pseudotyped HIV-1 NL4-3 infected in human HEK293T cells assessed as inhibition of viral replication by measuring luciferase activity incubated for 48 hrs further infected with human SupT1 cells for 48 hrs by luciferase based analysis", "type": "functional, organism-based", "settings": "Human immunodeficiency virus 1, NL4-3, HEK-293T"}, "[4]": {"tested_on": "Human immunodeficiency virus 1", "assay": "as §1, with “drug-resistant” for “wild type”, “NL4-3 harboring protease V32I/L33F/I54M/I84V mutant” for “NL4-3”", "type": "functional, organism-based", "settings": "Human immunodeficiency virus 1, NL4-3, HEK-293T"}},
  "data": [
    {"smiles": "COc1ccc(S(=O)(=O)N(CC(C)C)C[C@@H](O)[C@H](Cc2ccccc2)NC(=O)O[C@H]2CCNC2)cn1", "values": [
      {"measurement": "IC50", "setting": "[1]", "value": 4.04, "unit": "µM"}
    ]},
    {"smiles": "CC(C)CN(C[C@@H](O)[C@H](Cc1ccccc1)NC(=O)[C@H]1CCCN1)S(=O)(=O)c1ccc(O)cc1", "values": [
      {"measurement": "IC50", "setting": "[1]", "value": 96.9, "unit": "µM"}
    ]},
    {"smiles": "COc1ccc(S(=O)(=O)N(CC(C)C)C[C@@H](O)[C@H](Cc2ccccc2)NC(=O)[C@H]2CCCN2)cc1", "values": [
      {"measurement": "IC50", "setting": "[1]", "value": 39.8, "unit": "µM"}
    ]},
    {"smiles": "CC(C)CN(C[C@@H](O)[C@H](Cc1ccccc1)NC(=O)O[C@H]1CCNC1)S(=O)(=O)c1ccc(O)cc1", "values": [
      {"measurement": "CC50 at 24 h", "setting": "[2]", "value": "> 200", "unit": "µM"},
      {"measurement": "EC50", "setting": "[3]", "value": 0.41, "unit": "µM"},
      {"measurement": "IC50", "setting": "[1]", "value": 0.72, "unit": "µM"},
      {"measurement": "EC50", "setting": "[4]", "value": 8.14, "unit": "µM"}
    ]},
    {"smiles": "CC(C)CN(C[C@@H](O)[C@H](Cc1ccccc1)NC(=O)N[C@H]1CCNC1)S(=O)(=O)c1ccc(O)cc1", "values": [
      {"measurement": "IC50", "setting": "[1]", "value": 1.95, "unit": "µM"}
    ]},
    {"smiles": "CC(C)CN(C[C@@H](O)[C@H](Cc1ccccc1)NC(=O)O[C@H]1CCOC1)S(=O)(=O)c1ccc(N)cc1", "values": [
      {"measurement": "CC50 at 24 h", "setting": "[2]", "value": "> 200", "unit": "µM"},
      {"measurement": "EC50", "setting": "[3]", "value": 0.26, "unit": "µM"},
      {"measurement": "EC50", "setting": "[4]", "value": 3.93, "unit": "µM"}
    ]},
    {"smiles": "COc1ccc(S(=O)(=O)N(CC(C)C)C[C@@H](O)[C@H](Cc2ccccc2)NC(=O)O[C@@H]2CCNC2)cc1", "values": [
      {"measurement": "IC50", "setting": "[1]", "value": 2.58, "unit": "µM"}
    ]},
    {"smiles": "CC(C)CN(C[C@@H](O)[C@H](Cc1ccccc1)NC(=O)[C@H]1CCNC1)S(=O)(=O)c1ccc(NO)cc1", "values": [
      {"measurement": "IC50", "setting": "[1]", "value": 10.9, "unit": "µM"}
    ]},
    {"smiles": "COc1ccc(S(=O)(=O)N(CC(C)C)C[C@@H](O)[C@H](Cc2ccccc2)NC(=O)[C@H]2CCNC2)cc1", "values": [
      {"measurement": "IC50", "setting": "[1]", "value": 0.6, "unit": "µM"}
    ]},
    {"smiles": "CC(C)CN(C[C@@H](O)[C@H](Cc1ccccc1)NC(=O)N[C@@H]1CCNC1)S(=O)(=O)c1ccc(O)cc1", "values": [
      {"measurement": "IC50", "setting": "[1]", "value": 5.97, "unit": "µM"}
    ]},
    {"smiles": "COc1ccc(S(=O)(=O)N(CC(C)C)C[C@@H](O)[C@H](Cc2ccccc2)NC(=O)[C@@H]2CCNC2)cn1", "values": [
      {"measurement": "IC50", "setting": "[1]", "value": 0.83, "unit": "µM"}
    ]},
    {"smiles": "COc1ccc(S(=O)(=O)N(CC(C)C)C[C@@H](O)[C@H](Cc2ccccc2)NC(=O)[C@@H]2CCCN2)cc1", "values": [
      {"measurement": "IC50", "setting": "[1]", "value": 2.19, "unit": "µM"}
    ]},
    {"smiles": "CC(C)CN(C[C@@H](O)[C@H](Cc1ccccc1)NC(=O)O[C@@H]1CCNC1)S(=O)(=O)c1ccc(O)cc1", "values": [
      {"measurement": "CC50 at 24 h", "setting": "[2]", "value": "> 200", "unit": "µM"},
      {"measurement": "EC50", "setting": "[3]", "value": 0.75, "unit": "µM"},
      {"measurement": "IC50", "setting": "[1]", "value": 0.82, "unit": "µM"},
      {"measurement": "EC50", "setting": "[4]", "value": 9.26, "unit": "µM"}
    ]},
    {"smiles": "CC(C)CN(C[C@@H](O)[C@H](Cc1ccccc1)NC(=O)C[C@@H]1CCNC1)S(=O)(=O)c1ccc(O)cc1", "values": [
      {"measurement": "IC50", "setting": "[1]", "value": 5.01, "unit": "µM"}
    ]},
    {"smiles": "COc1ccc(S(=O)(=O)N(CC(C)C)C[C@@H](O)[C@H](Cc2ccccc2)NC(=O)O[C@H]2CCNC2)cc1", "values": [
      {"measurement": "IC50", "setting": "[1]", "value": 1.1, "unit": "µM"}
    ]},
    {"smiles": "CC(C)CN(C[C@@H](O)[C@H](Cc1ccccc1)NC(=O)O[C@@H]1CCNC1)S(=O)(=O)c1ccc(NO)cc1", "values": [
      {"measurement": "IC50", "setting": "[1]", "value": 27.4, "unit": "µM"}
    ]},
    {"smiles": "CC(C)CN(C[C@@H](O)[C@H](Cc1ccccc1)NC(=O)[C@@H]1CCNC1)S(=O)(=O)c1ccc(O)cc1", "values": [
      {"measurement": "CC50 at 24 h", "setting": "[2]", "value": "> 200", "unit": "µM"},
      {"measurement": "EC50", "setting": "[3]", "value": 0.29, "unit": "µM"},
      {"measurement": "IC50", "setting": "[1]", "value": 0.32, "unit": "µM"},
      {"measurement": "EC50", "setting": "[4]", "value": 1.9, "unit": "µM"}
    ]},
    {"smiles": "COc1ccc(S(=O)(=O)N(CC(C)C)C[C@@H](O)[C@H](Cc2ccccc2)NC(=O)C[C@H]2CCNC2)cc1", "values": [
      {"measurement": "IC50", "setting": "[1]", "value": 2.77, "unit": "µM"}
    ]},
    {"smiles": "CC(C)CN(C[C@@H](O)[C@H](Cc1ccccc1)NC(=O)C[C@H]1CCNC1)S(=O)(=O)c1ccc(O)cc1", "values": [
      {"measurement": "IC50", "setting": "[1]", "value": 1.43, "unit": "µM"}
    ]},
    {"smiles": "CC(C)CN(C[C@@H](O)[C@H](Cc1ccccc1)NC(=O)O[C@H]1CCNC1)S(=O)(=O)c1ccc(NO)cc1", "values": [
      {"measurement": "IC50", "setting": "[1]", "value": 5.1, "unit": "µM"}
    ]},
    {"smiles": "COc1ccc(S(=O)(=O)N(CC(C)C)C[C@@H](O)[C@H](Cc2ccccc2)NC(=O)O[C@@H]2CCNC2)cn1", "values": [
      {"measurement": "IC50", "setting": "[1]", "value": 23, "unit": "µM"}
    ]},
    {"smiles": "CC(C)CN(C[C@@H](O)[C@H](Cc1ccccc1)NC(=O)O[C@@H]1CCNC1)S(=O)(=O)c1ccc(N)cc1", "values": [
      {"measurement": "IC50", "setting": "[1]", "value": 25.4, "unit": "µM"}
    ]},
    {"smiles": "COc1ccc(S(=O)(=O)N(CC(C)C)C[C@@H](O)[C@H](Cc2ccccc2)NC(=O)C[C@@H]2CCNC2)cc1", "values": [
      {"measurement": "IC50", "setting": "[1]", "value": 20.5, "unit": "µM"}
    ]},
    {"smiles": "CC(C)CN(C[C@@H](O)[C@H](Cc1ccccc1)NC(=O)[C@@H]1CCCN1)S(=O)(=O)c1ccc(O)cc1", "values": [
      {"measurement": "IC50", "setting": "[1]", "value": 0.97, "unit": "µM"}
    ]},
    {"smiles": "COc1ccc(S(=O)(=O)N(CC(C)C)C[C@@H](O)[C@H](Cc2ccccc2)NC(=O)[C@@H]2CCNC2)cc1", "values": [
      {"measurement": "CC50 at 24 h", "setting": "[2]", "value": "> 200", "unit": "µM"},
      {"measurement": "EC50", "setting": "[3]", "value": 1.35, "unit": "µM"},
      {"measurement": "IC50", "setting": "[1]", "value": 0.41, "unit": "µM"},
      {"measurement": "EC50", "setting": "[4]", "value": 2.51, "unit": "µM"}
    ]},
    {"smiles": "COc1ccc(S(=O)(=O)N(CC(C)C)C[C@@H](O)[C@H](Cc2ccccc2)NC(=O)N[C@@H]2CCNC2)cc1", "values": [
      {"measurement": "IC50", "setting": "[1]", "value": 20.7, "unit": "µM"}
    ]},
    {"smiles": "CC(C)CN(C[C@@H](O)[C@H](Cc1ccccc1)NC(=O)[C@@H]1CCNC1)S(=O)(=O)c1ccc(NO)cc1", "values": [
      {"measurement": "IC50", "setting": "[1]", "value": 1.21, "unit": "µM"}
    ]},
    {"smiles": "COc1ccc(S(=O)(=O)N(CC(C)C)C[C@@H](O)[C@H](Cc2ccccc2)NC(=O)N[C@H]2CCNC2)cc1", "values": [
      {"measurement": "IC50", "setting": "[1]", "value": 4.01, "unit": "µM"}
    ]},
    {"smiles": "CC(C)CN(C[C@@H](O)[C@H](Cc1ccccc1)NC(=O)[C@H]1CCNC1)S(=O)(=O)c1ccc(N)cc1", "values": [
      {"measurement": "IC50", "setting": "[1]", "value": 12.5, "unit": "µM"}
    ]},
    {"smiles": "CC(C)CN(C[C@@H](O)[C@H](Cc1ccccc1)NC(=O)[C@H]1CCNC1)S(=O)(=O)c1ccc(O)cc1", "values": [
      {"measurement": "CC50 at 24 h", "setting": "[2]", "value": "> 200", "unit": "µM"},
      {"measurement": "EC50", "setting": "[3]", "value": 1.57, "unit": "µM"},
      {"measurement": "IC50", "setting": "[1]", "value": 0.51, "unit": "µM"},
      {"measurement": "EC50", "setting": "[4]", "value": 13.3, "unit": "µM"}
    ]},
    {"smiles": "CC(C)CN(C[C@@H](O)[C@H](Cc1ccccc1)NC(=O)[C@@H]1CCNC1)S(=O)(=O)c1ccc(N)cc1", "values": [
      {"measurement": "IC50", "setting": "[1]", "value": 6.16, "unit": "µM"}
    ]},
    {"smiles": "CC(C)CN(C[C@@H](O)[C@H](Cc1ccccc1)NC(=O)O[C@H]1CCNC1)S(=O)(=O)c1ccc(N)cc1", "values": [
      {"measurement": "IC50", "setting": "[1]", "value": 5.06, "unit": "µM"}
    ]},
    {"smiles": "COc1ccc(S(=O)(=O)N(CC(C)C)C[C@@H](O)[C@H](Cc2ccccc2)NC(=O)[C@H]2CCNC2)cn1", "values": [
      {"measurement": "IC50", "setting": "[1]", "value": 4.74, "unit": "µM"}
    ]}
  ]
}
